Values joined by “and” are separate entries in the source; they are usually repeats but may differ in a detail not shown here. Equal values may be shown once. Read-outs that look alike come from different tables or passages of the source.
How the values were obtained:
rats = conditions: oral; cited from earlier work
[1] = tested on: forearms of a human volunteer; assay: Further human vasoconstriction testing, Method 1; assay type: in vivo
Procedure: The mixtures, in 50 μL amounts, were applied to circular patches (8 mm diameter). After evaporation of ethanol, the patches were applied to the forearms of a human volunteer, and covered with a water impervious film for 3 hr. The intensity of vasoconstriction (scale 0-4) was judged at various time intervals after removal of the patches. The grading scale was as follows: 0, normal skin; 1, slight pallor of indistinct outline; 2, pallor with at least two corners outlined; 3, even pallor with a clear outline of the application sites; 4, very intense pallor. The skin tests (2-4 tests on each compound) were performed on the same person.

[2] = molecular target: T1, rat lung glucocorticoid receptor (Rattus norvegicus, UniProt P06536); conditions: previously found, cited from earlier work
T1 construct: Immediately after resection of the lungs, the tissue was frozen in ice; The cytosol was prepared; from tissue; host or cells: lung cytosol of adrenalectomized male Sprague-Dawley rats
T1 sequence (P06536 1-795): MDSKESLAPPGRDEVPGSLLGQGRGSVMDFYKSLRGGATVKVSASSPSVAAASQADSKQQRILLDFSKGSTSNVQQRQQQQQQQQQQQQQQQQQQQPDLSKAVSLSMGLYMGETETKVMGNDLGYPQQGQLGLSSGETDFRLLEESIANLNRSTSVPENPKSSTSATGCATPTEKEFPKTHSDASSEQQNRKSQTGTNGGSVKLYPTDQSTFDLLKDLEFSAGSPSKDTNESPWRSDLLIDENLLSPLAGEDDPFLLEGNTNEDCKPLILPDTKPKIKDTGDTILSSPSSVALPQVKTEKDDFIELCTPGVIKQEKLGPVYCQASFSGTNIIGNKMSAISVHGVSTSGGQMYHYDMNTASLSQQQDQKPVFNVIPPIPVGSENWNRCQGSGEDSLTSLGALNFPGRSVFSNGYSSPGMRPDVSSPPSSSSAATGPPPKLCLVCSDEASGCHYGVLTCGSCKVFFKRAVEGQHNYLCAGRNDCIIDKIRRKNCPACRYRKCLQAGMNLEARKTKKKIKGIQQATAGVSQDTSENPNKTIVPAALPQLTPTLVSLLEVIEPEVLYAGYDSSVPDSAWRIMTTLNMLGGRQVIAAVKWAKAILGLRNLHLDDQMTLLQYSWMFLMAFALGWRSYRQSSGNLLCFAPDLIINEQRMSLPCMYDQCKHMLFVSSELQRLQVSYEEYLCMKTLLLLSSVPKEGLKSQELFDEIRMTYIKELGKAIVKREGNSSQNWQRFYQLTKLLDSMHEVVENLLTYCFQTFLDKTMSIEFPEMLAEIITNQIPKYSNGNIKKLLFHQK

[3] = tested on: forearm of a human volunteer; assay: Human vasoconstriction test; assay type: in vivo; design: key: 0 = normal skin, 4 = very intense pallor; conditions: 10 mM
Procedure: Test compounds (10 mM) were dissolved in ethanol/propylene glycol (9/1) solution, and 50 μL of the mixtures were applied to circular patches, 8 mm in diameter. After ethanol evaporation, the patches were applied to the forearm of a human volunteer, and covered with a water impervious film for 3 hours. The intensity of vasoconstriction was judged 1, 8, 17 and 24 hours after the patches were removed.
The grading scale for the vasoconstriction activity was as follows: 0, normal skin; 1, slight pallor of indistinct outline; 2, pallor with at least two corners outlined; 3, even pallor with a clear outline of the application sites; 4, very intense pallor.

## CC(=O)O [Acetic acid]
rats
  LD50: 3530 mg/kg

## CCC(=O)O [propionic acid]
rats
  LD50: 4290 mg/kg

## CCOC(=O)O[C@]1(C(=O)OCCl)CC[C@H]2[C@@H]3CCC4=CC(=O)C=C[C@]4(C)[C@H]3[C@@H](O)C[C@@]21C [Loteprednol etabonate, chloromethyl 17α-ethoxycarbonyloxy-11β-hydroxyandrosta-1,4-dien-3-one-17β-carboxylate, reference compound]
[1]; 3 Hours, 0.01 mM
  Vasoconstriction activity: 0
[1]; 3 Hours, 0.05 mM
  Vasoconstriction activity: 0
[1]; 3 Hours, 0.1 mM
  Vasoconstriction activity: 1
[1]; 3 Hours, 0.5 mM
  Vasoconstriction activity: 2
[1]; 3 Hours, 1 mM
  Vasoconstriction activity: 3
[1]; 3 Hours, 5 mM
  Vasoconstriction activity: 3
[1]; 3 Hours, 10 mM
  Vasoconstriction activity: 4
[1]; 20 Hours, 0.01 mM
  Vasoconstriction activity: 0
[1]; 20 Hours, 0.05 mM
  Vasoconstriction activity: 0
[1]; 20 Hours, 0.1 mM
  Vasoconstriction activity: 0
[1]; 20 Hours, 0.5 mM
  Vasoconstriction activity: 0
[1]; 20 Hours, 1 mM
  Vasoconstriction activity: 0
[1]; 20 Hours, 5 mM
  Vasoconstriction activity: 1
[1]; 20 Hours, 10 mM
  Vasoconstriction activity: 2
[2]; with Δ1-cortienic acid
  RBA: 420
[2]; without Δ1-cortienic acid
  RBA: 152
[3]; 1 hour after patch removal
  Vasoconstriction activity: 2
[3]; 8 hours after patch removal
  Vasoconstriction activity: 3 and 2
[3]; 17 hours after patch removal
  Vasoconstriction activity: 2
[3]; 24 hours after patch removal
  Vasoconstriction activity: 2 and 1

Reference: patent publication US5981517A, “Androstene derivatives” (priority 1997, dated 1999)
